Assay results reported in patent EP1165534B1, “BENZOYLGUANIDINE DERIVATIVES WITH ADVANTAGEOUS PROPERTIES, METHOD FOR PRODUCING THEM AND THEIR USE IN THE PRODUCTION OF MEDICAMENTS” (Boehringer Ingelheim Pharma GmbH & Co.KG, priority 1998, dated 2000).
pIC50: −log10 of the molar value. Where a name gives a salt, the structure may show the parent alone. Read-outs that look alike come from different tables or passages of the source.

How the values were obtained:
Na^+/H^+-Austauscher = molecular target: T1, Na^+/H^+-Austauscher (Homo sapiens, UniProt P19634); experiment: Inhibition of the Na+/H+ exchanger in human colon cancer cells (HT-29), BCECF fluorescence pH measurement; assay type: cell-based; conditions: HT-29-Zellen; 4 min, 37°C, pH 7.0
T1 construct: HT-29-Zellen werden bei 37°C, 5% CO2 in Wachstumsmedium inkubiert; endogenous in cells; host or cells: HT-29 human colon cancer cells
T1 sequence (P19634 whole entry): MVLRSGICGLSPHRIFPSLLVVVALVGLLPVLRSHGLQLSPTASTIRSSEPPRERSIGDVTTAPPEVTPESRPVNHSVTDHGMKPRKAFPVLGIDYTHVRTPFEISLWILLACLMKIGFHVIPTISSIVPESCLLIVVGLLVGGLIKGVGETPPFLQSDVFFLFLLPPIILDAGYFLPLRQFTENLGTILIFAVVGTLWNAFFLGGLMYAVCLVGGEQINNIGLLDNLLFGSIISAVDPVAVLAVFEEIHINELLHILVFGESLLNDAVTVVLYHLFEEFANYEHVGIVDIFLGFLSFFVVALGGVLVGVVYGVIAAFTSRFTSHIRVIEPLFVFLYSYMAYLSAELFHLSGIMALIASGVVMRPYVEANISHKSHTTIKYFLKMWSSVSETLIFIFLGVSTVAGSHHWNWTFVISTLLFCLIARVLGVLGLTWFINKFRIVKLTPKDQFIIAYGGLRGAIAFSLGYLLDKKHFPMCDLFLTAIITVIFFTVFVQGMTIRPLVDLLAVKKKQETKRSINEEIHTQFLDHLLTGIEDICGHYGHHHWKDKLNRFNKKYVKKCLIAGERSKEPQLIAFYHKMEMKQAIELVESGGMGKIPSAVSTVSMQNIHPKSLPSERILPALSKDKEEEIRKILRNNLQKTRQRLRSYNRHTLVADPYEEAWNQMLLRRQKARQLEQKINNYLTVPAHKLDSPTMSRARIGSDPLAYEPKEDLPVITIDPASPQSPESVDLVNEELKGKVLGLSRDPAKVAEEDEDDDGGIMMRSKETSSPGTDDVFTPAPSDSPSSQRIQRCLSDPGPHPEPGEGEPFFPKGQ
Experimental: Inhibition des Na^+/H^+-Austauschers in humanen Darmkrebszellen (HT-29):
HT-29-Zellen werden bei 37°C, 5% CO2 in Wachstumsmedium inkubiert. Nach 3-5 Tagen wurde das Wachstumsmedium entfernt, die Zellen gewaschen und mit 7.5 µM BCECF-AM (pH-sensitiver Fluoreszenzfarbstoff) bei 37°C ohne CO2 beladen. Nach 30 min werden die Zellen gewaschen und mit folgendem Medium angesäuert: 70 mM Cholinchlorid, 20 mM NH4Cl, 1 mM MgCl2, 1.8 mM CaCl2, 5 mM Glucose und 15 mM HEPES, pH 7.5.
Nach 6 min Inkubation bei 37°C ohne CO2 werden die Zellen gewaschen und für 5 min mit Waschmedium inkubiert: 120 mM Cholinchlorid, 5 mM KCl, 1 mM MgCl2, 1.8 mM CaCl2, 5 mM Glucose und 15 mM MOPS, pH 7.0.
Das Waschmedium wird entfernt und Kontrollmedium mit oder ohne Testverbindung wird zugegeben: 120 mM NaCl, 5 mM KCl, 1 mM MgCl2, 1.8 mM CaCl2, 5 mM Glucose, 15 mM MOPS, pH 7.0.
Die Zellen werden 4 min bei 37°C ohne CO2 inkubiert und fluorimetrisch (CytoFluor 2350) vermessen. Die Fluoreszenz des Farbstoffes BCECF wird bei den Anregungswellenlängen 485 nm (pH-sensitiv) und 440 nm (nicht pH-sensitiv) und bei der Emissionswellenlänge 530 nm gemessen. Der cytoplasmatische pH wird aus dem Verhältnis der Fluoreszenzen bei 485 und 440 nm berechnet. Das Fluoreszenzverhältnis wird durch Messung des Fluoreszenzsignals nach Äquilibrierung von externem und internem pH mit Nigericin kalibriert.

[1] = Pharmacokinetics in male rats after i.v. and oral administration; assay type: in vivo, Ratten; conditions: not fasted; for F: non-compartmental analysis (TopFit); for half-life: rat, plasma
Experimental: Pharmakokinetische Daten:
Für die Untersuchungen wurden männliche, ca. 200 g schwere Ratten (nicht nüchtern), verwendet. Zur intravenösen und oralen Applikation werden die Substanzen in einer angesäuerten wässerigen Lösung (pH 3) gelöst. Einzelne Bolus Injektionen (0.5 mg/kg i.v., 2.5 mg/kg p.o.) werden in die Schwanzvene injiziert (0.2 ml/200g) oder über eine Kanüle in den Magen gegeben (1 ml/200 g). Die Applikationslösungen werden analysiert, um die applizierte Dosis zu bestätigen. 0.5 ml Aliquots Blut werden vom retro-orbitalen Venenplexus unter kurzer Halothan-Betäubung mit heparinisierten Glass-Kapillaren nach folgendem Schema entnommen: • nach i.v. Applikation: 5 min, 15 min, 30 min, 1 h, 2 h, 4 h, 6 h, 8h; • nach oraler Applikation: 15 min, 1 h, 2 h, 4 h, 6 h, 8 h, 24 h, 32 h.
Die Proben werden zentrifugiert und das Plasma bis zur Analyse bei - 20°C gelagert. Die Proben-Vorbereitung erfolgt durch flüssig-flüssig Extraktion mit einem internen Standard. Die Plasmaextrakte werden mit Reversed Phase HPLC, gekoppelt mit einem Elektrospray-Tandem-Massenspektrometer analysiert. Die pharmakokinetischen Daten werden aus den entsprechenden PlasmaKonzentrationen durch Kompartiment-freie Analyse mit dem TopFit Programm bestimmt (Heinzel, G., Woloszczak, R., Thomann, P. TopFit 2.0 - Pharmacokinetic and pharmacodynamic data analysis, system for the PC, Gustav Fischer Verlag, Stuttgart, Jena, New York, 1993).

[2] = iv, 0.5 mg/kg i.v., read-out: t1/2 (i.v.) (converted)
[3] = po, 2.5 mg/kg p.o., read-out: t1/2 (p.o.) (converted)

`COc1cccc(C(=O)N2CCN(c3ccc(C(=O)NC(=N)N)cc3C(F)(F)F)CC2)c1` [Beispiel 1, 4-(4-(3-Methoxyphenylcarbonyl)-1-piperazinyl)-3-trifluormethylbenzoylguanidin-hydrochlorid] showed a pIC50 (Na^+/H^+-Austauscher) of 7.12.

Work on `N=C(N)NC(=O)c1ccc(N2CCN(C(=O)c3ccc[nH]3)CC2)c(C(F)(F)F)c1` [Beispiel 2, 4-(4-(2-Pyrrolylcarbonyl)-1-piperazinyl)-3-trifluormethylbenzoylguanidin-methansulfonat] yielded an F ([1]; 0.5 mg/kg i.v., 2.5 mg/kg p.o.) of 63, a half-life [1, 2] of 1.3 h and a half-life [1, 3] of 5 h.

Molecule `N=C(N)NC(=O)c1ccc(N2CCN(C(=O)c3ccc(F)cc3)CC2)c(C(F)(F)F)c1` [Beispiel 3, 4-(4-(4-Fluorphenylcarbonyl)-1-piperazinyl)-3-trifluormethylbenzoylguanidin-methansulfonat] has a pIC50 (Na^+/H^+-Austauscher) of 7.42, an F ([1]; 0.5 mg/kg i.v., 2.5 mg/kg p.o.) of 71 and a half-life [1, 2] of 3.1 h. For the same molecule, the half-life [1, 3] was 5.4 h.

Work on `COc1ccccc1C(=O)N1CCN(c2ccc(C(=O)NC(=N)N)cc2C(F)(F)F)CC1` [Beispiel 4, 4-(4-(2-Methoxyphenylcarbonyl)-1-piperazinyl)-3-trifluormethylbenzoylguanidin-hydrochlorid] yielded a pIC50 (Na^+/H^+-Austauscher) of 7.08.

`N=C(N)NC(=O)c1ccc(N2CCN(C(=O)c3cccc(C(F)(F)F)c3)CC2)c(C(F)(F)F)c1` [Beispiel 5, 4-(4-(3-Trifluormethylphenylcarbonyl)-1-piperazinyl)-3-trifluormethylbenzoylguanidin-hydrochlorid] showed a pIC50 (Na^+/H^+-Austauscher) of 7.64, an F ([1]; 0.5 mg/kg i.v., 2.5 mg/kg p.o.) of 58 and a half-life [1, 2] of 5.4 h. For the same molecule, the half-life [1, 3] was 7.5 h.

Molecule `N=C(N)NC(=O)c1ccc(N2CCN(C(=O)c3ccco3)CC2)c(C(F)(F)F)c1` [Beispiel 7, 4-(4-(2-Furylcarbonyl)-1-piperazinyl)-3-trifluormethyl-benzoylguanidinmethansulfonat] has a pIC50 (Na^+/H^+-Austauscher) of 7.08.

Molecule `Cc1cccc(C(=O)N2CCN(c3ccc(C(=O)NC(=N)N)cc3C(F)(F)F)CC2)c1` [Beispiel 8, 4-(4-(3-Methylphenylcarbonyl)-1-piperazinyl)-3-trifluormethylbenzoylguanidin-methansulfonat] has a pIC50 (Na^+/H^+-Austauscher) of 7.21.

Molecule `N=C(N)NC(=O)c1ccc(N2CCN(C(=O)c3ccccn3)CC2)c(C(F)(F)F)c1` [Beispiel 10, 4-(4-(2-Pyridylcarbonyl)-1-piperazinyl)-3-trifluormethyl-benzoylguanidindimethansulfonat] has a pIC50 (Na^+/H^+-Austauscher) of 7.10.
